Data from patent publication US8703437B2, “Fluorogenic sensors for phospholipase C isozymes” (The University of North Carolina at Chapel Hill, priority 2010, dated 2014).

Target: T1, PLC-γ1 (Homo sapiens, UniProt P19174)
T1 construct: addition of 4 ng of purified full-length wild-type PLC-γ1; made in house; host or cells: insect cells
T1 sequence (P19174 1-1290): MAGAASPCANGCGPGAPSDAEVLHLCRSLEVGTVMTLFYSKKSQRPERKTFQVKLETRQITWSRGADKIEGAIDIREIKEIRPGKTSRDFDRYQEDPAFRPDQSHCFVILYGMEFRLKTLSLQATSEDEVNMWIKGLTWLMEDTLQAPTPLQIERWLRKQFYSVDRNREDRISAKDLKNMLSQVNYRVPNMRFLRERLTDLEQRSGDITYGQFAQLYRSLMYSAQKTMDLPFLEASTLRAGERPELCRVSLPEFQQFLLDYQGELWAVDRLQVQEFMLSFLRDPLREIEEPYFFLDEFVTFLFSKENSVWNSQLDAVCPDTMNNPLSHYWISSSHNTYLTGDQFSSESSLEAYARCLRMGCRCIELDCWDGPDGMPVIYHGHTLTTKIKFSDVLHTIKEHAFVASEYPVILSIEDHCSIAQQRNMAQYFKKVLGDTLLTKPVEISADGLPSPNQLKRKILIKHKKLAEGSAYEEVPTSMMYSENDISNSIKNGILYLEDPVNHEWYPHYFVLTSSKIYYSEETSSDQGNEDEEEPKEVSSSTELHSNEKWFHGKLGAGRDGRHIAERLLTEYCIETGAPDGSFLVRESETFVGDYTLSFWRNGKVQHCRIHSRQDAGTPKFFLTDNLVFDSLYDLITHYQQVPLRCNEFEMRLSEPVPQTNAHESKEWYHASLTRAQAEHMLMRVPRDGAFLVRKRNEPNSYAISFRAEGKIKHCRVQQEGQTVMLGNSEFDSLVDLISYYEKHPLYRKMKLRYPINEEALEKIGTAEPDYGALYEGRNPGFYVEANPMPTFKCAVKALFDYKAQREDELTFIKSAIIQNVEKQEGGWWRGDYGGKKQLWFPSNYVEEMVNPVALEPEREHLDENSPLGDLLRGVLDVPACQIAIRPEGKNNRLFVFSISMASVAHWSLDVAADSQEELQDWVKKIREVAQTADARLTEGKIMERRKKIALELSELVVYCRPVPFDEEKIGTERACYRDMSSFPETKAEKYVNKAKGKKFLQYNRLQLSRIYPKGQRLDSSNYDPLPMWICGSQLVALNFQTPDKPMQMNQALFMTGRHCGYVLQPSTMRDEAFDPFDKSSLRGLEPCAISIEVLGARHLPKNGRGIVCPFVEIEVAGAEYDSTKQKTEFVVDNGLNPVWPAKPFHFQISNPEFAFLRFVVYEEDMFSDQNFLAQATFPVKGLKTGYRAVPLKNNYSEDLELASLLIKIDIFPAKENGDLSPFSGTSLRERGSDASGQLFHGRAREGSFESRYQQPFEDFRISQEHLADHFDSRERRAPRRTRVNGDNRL
Assay: Kinetic studies with PLC-γ1
Format: biochemical
Conditions: endogenous substrate PIP2, [3H]PtdIns-(4,5)P2, liquid scintillation counting, 30° C.
Procedure: For comparison, the endogenous substrate, PIP2, was also applied in the enzymatic reaction under similar conditions.
The assays were started by the addition of 4 ng of purified full-length wild-type PLC-γ1. The reaction mixtures were then incubated at 30° C., and fluorescence was measured continuously as described above. For kinetic studies with the endogenous PIP2, a mixture of PtdIns-(4,5)P2 (300 μM, Avanti Polar Lipids) and ˜10,000 cpm of [^3H]PtdIns-(4,5)P2 was dried under a stream of nitrogen and resuspended in 0.5% cholate. The resulting lipid stock was diluted to obtain final assay conditions with either 280, 160, 80, 24, or 8 μM PtdIns(4,5)P2 in the same buffer as described above in a final volume of 60 μL. Assays were initiated by the addition of 17 ng of purified full-length wild-type PLC-γ1. After incubation at 30° C. at time intervals between 0-8 min, reactions were stopped by the addition of 200 μL of 10% (v/v) trichloroacetic acid (TCA) and 100 μL of 10 mg/mL BSA to precipitate uncleaved lipids and protein. Centrifugation of the reaction mixture isolated soluble [^3H]Ins(1,4,5)P3, which was quantified using liquid scintillation counting.

phosphatidylinositol 4,5-bisphosphate [PIP2]
Km: 28 ± 2.6 µM | Vmax: 2.7 ± 0.07 pmol/min/ng
